What was measured:
barnyardgrass = test: Test B preemergence/postemergence greenhouse plant response rating 0 to 10; format: in vivo, Echinochloa crus-galli; details: 0 to 10 scale
Method in brief: (§1)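 Both application timings were run together: seeds got compound preemergence, and established seedlings (two to eighteen cm) got it postemergence. Non-phytotoxic solvent carried the chemical. Ratings are visual, versus controls, at twelve to sixteen days.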

blackgrass = test: as above; format: in vivo, Alopecurus myosuroides; details: 0 to 10 scale
Method in brief: as §1

crabgrass = test: as above; format: in vivo, Digitaria spp.; details: 0 to 10 scale
Method in brief: as §1

giant foxtail = test: as above; format: in vivo, Setaria faberii; details: 0 to 10 scale
Method in brief: as §1

rape = test: as above; format: in vivo, Brassica napus; details: 0 to 10 scale
Method in brief: as §1

purple nutsedge = test: as above; format: in vivo, Cyperus rotundus; details: 0 to 10 scale
Method in brief: as §1

corn = test: Test C preemergence/postemergence greenhouse plant response rating 0 to 100; format: in vivo, Zea mays; details: POSTEMERGENCE; for Plant response rating, Corn: 0 to 100 scale
Method in brief: (§2)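 Compounds in non-phytotoxic solvent applied preemergence to sandy loam one day after planting, postemergence at the 1–4 leaf stage, or to ~2.5 cm floodwater over silt loam.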

morningglory = test: as above; format: in vivo, Ipomoea hederacea; details: POSTEMERGENCE; for Plant response rating, Morningglory: 0 to 100 scale
Method in brief: as §2

wheat = test: as above; format: in vivo, Triticum aestivum; details: POSTEMERGENCE; for Plant response rating, Wheat: 0 to 100 scale
Method in brief: as §2

wild buckwheat = test: as above; format: in vivo, Polygonum convolvulus; details: POSTEMERGENCE; for Plant response rating, Wild buckwheat: 0 to 100 scale
Method in brief: as §2

wild oat = test: as above; format: in vivo, Avena fatua; details: POSTEMERGENCE; for Plant response rating, Wild oat: 0 to 100 scale
Method in brief: as §2

rice = test: Test C flood test plant response rating 0 to 100; format: in vivo, Oryza sativa; details: for Plant response rating Rice Japonica: flood test species listed under POSTEMERGENCE, 0 to 100 scale
Text: The compounds evaluated in this test were formulated in a non-phytoxic solvent and applied to the soil surface before plant seedlings emerged (preemergence application), to water that covered the soil surface (flood application), and to plants that were in the one-to-four leaf stage (postemergence application). A sandy loam soil was used for the preemergence and postemergence tests, while a silt loam soil was used in the flood test. Water depth was approximately 2.5 cm for the flood test and was maintained at this level for the duration of the test. Plant species in the preemergence and postemergence tests consisted of barley (Hordeum vulgare), bedstraw (Galium aparine), blackgrass (Alopecurus myosuroides), chickweed (Stellaria media), corn (Zea mays), cotton (Gossypium hirsutum), crabgrass (Digitaria sanguinalis), downy brome (Bromus tectorum), giant foxtail (Setaria faberii), lambsquarters (Chenopodium album), morningglory (Ipomoea hederacea), pigweed ([…]), rape (Brassica napus), ryegrass (Lolium multiflorum), sorghum (Sorghum bicolor), soybean (Glycine max), speedwell (Veronica persica), sugar beet (Beta vulgaris), velvetleaf (Abutilon theophrasti), wheat (Triticum aestivum), wild buckwheat (Polygonum convolvulus), and wild oat (Avena fatua). All plant species were planted one day before application of the compound for the preemergence portion-of this test. Plantings of these species were adjusted to produce plants of appropriate size for the post-emergence portion of the test. […] All plant species were grown using normal greenhouse practices. Visual evaluations of injury expressed on treated plants, when compared to untreated controls, were recorded approximately fourteen to twenty one days after application of the test compound. […] A dash (-) response means no test result.

For `Fc1cc(Cl)c(OCCCl)cc1-c1nn2c(c1Cl)CCCC2` [Compound 49], the “Plant response rating, Barnyardgrass” value (barnyardgrass; POSTEMERGENCE, Rate 50 g/ha) was 3, the “Plant response rating, Barnyardgrass” value (barnyardgrass; POSTEMERGENCE, Rate 200 g/ha) was 7 and the “Plant response rating, Barnyardgrass” value (barnyardgrass; PREEMERGENCE, Rate 50 g/ha) was 0. The “Plant response rating, Barnyardgrass” value (barnyardgrass; Rate 200 g/ha, PREEMERGENCE) was 5, the “Plant response rating, Blackgrass” value (blackgrass; POSTEMERGENCE, Rate 50 g/ha) was 4 and the “Plant response rating, Blackgrass” value (blackgrass; POSTEMERGENCE, Rate 200 g/ha) was 6. For the same compound, the “Plant response rating, Blackgrass” value (blackgrass; PREEMERGENCE, Rate 50 g/ha) was 0, the “Plant response rating, Blackgrass” value (blackgrass; Rate 200 g/ha, PREEMERGENCE) was 2 and the “Plant response rating, Crabgrass” value (crabgrass; POSTEMERGENCE, Rate 50 g/ha) was 4. The “Plant response rating, Crabgrass” value (crabgrass; PREEMERGENCE, Rate 50 g/ha) was 0, the “Plant response rating, Crabgrass” value (crabgrass; Rate 200 g/ha, PREEMERGENCE) was 5 and the “Plant response rating, Giant foxtail” value (giant foxtail; POSTEMERGENCE, Rate 50 g/ha) was 4. The “Plant response rating, Giant foxtail” value (giant foxtail; PREEMERGENCE, Rate 50 g/ha) was 4, the “Plant response rating, Giant foxtail” value (giant foxtail; Rate 200 g/ha, POSTEMERGENCE) was 6 and the “Plant response rating, Giant foxtail” value (giant foxtail; Rate 200 g/ha, PREEMERGENCE) was 10. For the same compound, the “Plant response rating, Rape” value (rape; POSTEMERGENCE, Rate 50 g/ha) was 7, the “Plant response rating, Rape” value (rape; PREEMERGENCE, Rate 50 g/ha) was 1 and the “Plant response rating, Rape” value (rape; Rate 200 g/ha, POSTEMERGENCE) was 6. The “Plant response rating, Rape” value (rape; Rate 200 g/ha, PREEMERGENCE) was 6, the “Plant response rating, Nutsedge” value (purple nutsedge; POSTEMERGENCE, Rate 50 g/ha) was 2 and the “Plant response rating, Nutsedge” value (purple nutsedge; PREEMERGENCE, Rate 50 g/ha) was 0. For the same compound, the “Plant response rating, Nutsedge” value (purple nutsedge; Rate 200 g/ha, POSTEMERGENCE) was 6, the “Plant response rating, Nutsedge” value (purple nutsedge; Rate 200 g/ha, PREEMERGENCE) was 0 and the “Plant response rating, Corn” value (corn; 62 g/ha) was 40. The “Plant response rating, Corn” value (corn; 250 g/ha) was 50, the “Plant response rating (0 to 100), Corn” value (corn; Rate 4 g/ha) was 10 and the “Plant response rating (0 to 100), Corn” value (corn; Rate 16 g/ha) was 30. The “Plant response rating, Morningglory” value (morningglory; 62 g/ha) was 100, the “Plant response rating, Morningglory” value (morningglory; 250 g/ha) was 100 and the “Plant response rating (0 to 100), Morningglory” value (morningglory; Rate 4 g/ha) was 40. For the same compound, the “Plant response rating (0 to 100), Morningglory” value (morningglory; Rate 16 g/ha) was 50, the “Plant response rating, Wheat” value (wheat; 62 g/ha) was 50 and the “Plant response rating, Wheat” value (wheat; 250 g/ha) was 70. The “Plant response rating (0 to 100), Wheat” value (wheat; Rate 4 g/ha) was 10, the “Plant response rating (0 to 100), Wheat” value (wheat; Rate 16 g/ha) was 20 and the “Plant response rating, Wild buckwheat” value (wild buckwheat; 62 g/ha) was 100. The “Plant response rating, Wild buckwheat” value (wild buckwheat; 250 g/ha) was 100, the “Plant response rating (0 to 100), Wild buckwheat” value (wild buckwheat; Rate 4 g/ha) was 100 and the “Plant response rating (0 to 100), Wild buckwheat” value (wild buckwheat; Rate 16 g/ha) was 100. For the same compound, the “Plant response rating, Wild oat” value (wild oat; 62 g/ha) was 50, the “Plant response rating, Wild oat” value (wild oat; 250 g/ha) was 60 and the “Plant response rating (0 to 100), Wild oat” value (wild oat; Rate 4 g/ha) was 20. The “Plant response rating (0 to 100), Wild oat” value (wild oat; Rate 16 g/ha) was 40, the “Plant response rating (0 to 100), Rice Japonica” value (rice; POSTEMERGENCE section, flood test, Rate 4 g/ha) was 10 and the “Plant response rating (0 to 100), Rice Japonica” value (rice; Rate 16 g/ha, under POSTEMERGENCE head (flood test species)) was 30. The “Plant response rating Rice Japonica” value (rice; 62 g/ha) was 50 and the “Plant response rating Rice Japonica” value (rice; 250 g/ha) was 60.

— US6358885B1, “Substituted phenylheterocyclic herbicides” (Mississippi State University, priority 1992, dated 2002)
